Literature values, collected in patent US12201667B2, “Formulations for treating cramps and spasms” (LYTONE ENTERPRISE, INC., priority 2020, dated 2025).

Conditions: background statement

C=C[C@H]1C[N@@]2CC[C@H]1C[C@H]2[C@H](O)c1ccnc2ccc(OC)cc12 [quinine, Quinine]
reduction of cramp frequency: about a quarter
